# US10822376B2, “Biologically active peptides” (Baxalta Incorporated, priority 2008, dated 2020)
# Where a SMILES comes first, the peptide text is derived from it. Bridges are numbered along the chain shown (N, C = ends). Roman numbers before positions name the chains, in order. [ ]: non-standard residue; d: D form.
# Tests used:
# FVIII deficient plasma = assay: Defined Dual-Pathway Thrombin Generation Assay (DDPTGA, reagent C high), FVIII deficient plasma; type: biochemical, human; settings: for Peak IIa FVIII EU / Peak Time FVIII EU: FVIII deficient plasma; for Effect on both peak time and peak IIa of thrombin generation: DDPTGA, comment on Table 10
# Text: (§1) The intrinsic pathway of thrombin generation may be assayed in a thrombin generation assay by including FXIa and phospholipids. In such an assay, which is similar to an activated partial thromboplastin time (aPTT) test, thrombin generation is solely directed through the intrinsic pathway, and is FVIII dependent. A suitable assay is the Defined Intrinsic Thrombin Generation Assay described below. Alternatively, by employing low concentrations of TF and phospholipids instead of FXIa and phospholipids, thrombin is generated by both the extrinsic (tissue factor) and the intrinsic pathways. This form of the thrombin generation assay is the more physiologic one, as both thrombin generation pathways are involved; it is partially FVIII dependent. A suitable assay is the Defined Dual-Pathway Thrombin Generation Assay.
# (§2) Preferably, Reagent C high is used.
# (§3) Tissue factor dependency of peak thrombin generation and thrombin peak time was characterised in a composition containing a fixed concentration of phospholipid (namely 3.2 μM). Phospholipid dependency was characterised in a composition containing a fixed concentration of tissue factor (namely 7.2 μM). Peak time (time to peak thrombin generation) was dependent on the concentration of phospholipid or tissue factor. The final version of this assay is as described in the specific description, in which 10 μl reagent C high containing (32 μM phospholipid and 71.6 μM tissue factor) is used in a total volume of 100 μl.
# (§4) Further studies were conducted using 3.2 μM phospholipid and 7.2 μM tissue factor in FVIII deficient or inhibited plasma, to characterise the effect on peak thrombin generation and thrombin peak time of various coagulation factor preparations. These studies provided a basis from which to compare the efficacy of the compounds in the assay. Briefly, rFVIII (Recombinate® FVIII from Baxter) was tested at 0, 5, 10, 20, 40 and 80 mU/ml in FVIII deficient plasma. FEIBA was tested at 0, 8, 16, 31, 63 and 125 mU/ml in FVIII inhibited plasma. FVIIa was tested at 0, 0.1, 0.4, 1.6, 6.3 and 25 nM in FVIII inhibited plasma. […] Peak thrombin increased and both the lag time and the thrombin peak time decrease.
# FVIII inhibited plasma = assay: Defined Dual-Pathway Thrombin Generation Assay (DDPTGA, reagent C high), FVIII inhibited plasma; type: biochemical, human; settings: for Peak IIa FEIBA EU / Peak IIa FVIIa EU / Peak Time FEIBA EU / Peak Time FVIIa EU: FVIII inhibited plasma; for Activity in the Defined Dual-Pathway Thrombin Generation Assay: summary, FVIII inhibited or deficient plasma
# Text: as §1, §2, §3, §4
# [1] = system: FVIII-inhibited human normal plasma; assay: Defined Fibrin Deposition Assay (clotting time); type: biochemical
# Description: Another suitable assay to determine procoagulant activity, and particularly FVIII equivalent activity or FVIII inhibitor bypassing activity, is the Defined Fibrin Deposition Assay as described below. […] This assay is particularly useful for determining coagulation FVIII activity because it is conducted in the presence of FVIII-depleted or inhibited plasma.
# The Defined Fibrin Deposition Assay is performed as follows. FVIII activity of human citrated plasma (Baxter AG) is first inhibited by incubating (2 hours, 37° C.) 100 μl of human normal plasma with 25 μl heat inactivated anti-human FVIII plasma (300 BU/ml, 6 hours incubated at 56° C.) raised in goat. For each sample to be tested, 125 μl of this FVIII-inhibited human normal plasma is transferred to a pre-warmed cuvette and a 75 μl dilution of a test compound or FEIBA reference standard (Baxter AG) is added. The dilutions of test compound or FEIBA reference standard contain 50 mM imidazole, 100 mM NaCl and 10 mg/ml human serum albumin (Sigma) pH 7.4. As a trigger and for providing procoagulant surfaces 100 μl of a mix of human factor XIa (3.13 nM, Enzyme Research Laboratories) and phospholipid (PL) vesicles (Phosphatidylcholine/Phosphatidylserine 60%/40%, 30 μM; Avanti Polar Lipids) in 50 mM Imidazole, 100 mM NaCl, 10 mg/ml human serum albumin (Sigma) pH 7.4 is included. After incubating for three minutes at 37° C. the coagulation reaction is started by adding 100 μl of 25 mM CaCl2. Clot formation is monitored by a coagulometer (KC10A, Amelung, Germany). In brief, each cuvette rotates slowly above the magnetic detection device and contains a small magnetic metallic ball. Whilst the plasma components remain in solution, the ball sits at the bottom of the cuvette. Over time, a clot begins to form, such that the ball starts to rotate with the developing clot in the rotating cuvette. The “clotting time” is recorded and is defined as the time from addition of the CaCl2) to the time that the developing clot begins to rotate the metallic ball. A standard curve for FEIBA reference standard dilutions is calculated by linear regression of logarithmic FEIBA concentrations (x-axis) against the clotting time (y-axis). Based on the clotting time of each compound concentration FEIBA equivalent activities are calculated according to this standard curve.
# Thus, where a concentration of 100 μM is given, the actual concentration in the final assay volume in 25 μM.
# Various peptides were tested for the ability to stimulate fibrin deposition in the Defined Fibrin Deposition Assay as described in the specific description.
# [2] = system: human FVIII inhibited plasma; assay: Defined Intrinsic Thrombin Generation Assay (DITGA, triggered by FXIa and phospholipids); type: biochemical; settings: for Activity in the Defined Intrinsic Thrombin Generation Assay: summary
# Text: as §1
# The Defined Intrinsic Thrombin Generation Assay is performed as follows. FVIII activity of human plasma is inhibited by incubating (2 hours, 37° C.) 40 μl of human normal plasma with 10 μl heat inactivated anti-human FVIII plasma raised in goat (600 BU/ml, 6 hours incubated at 56° C.). […] Instead of FVIII-inhibited plasma, FVIII inhibitor patient plasma or several depleted plasmas can be used. The micro-plate is immediately put into a GENios Plus (Tecan) or Safire 2 (Tecan) fluorescence reader and the fluorescence signal (ex 340 nm/em 440 nm) is followed kinetically by reading the plate every 21 seconds.
# For calculation of activity equivalent units experiments are performed with dilutions of Factor Eight Inhibitor Bypassing Agent (FEIBA, Baxter AG), Immunate (human FVIII, purified plasma derived) reference standard (Baxter AG) or Recombinate standard (human FVIII, purified recombinant, Baxter AG). A linear fit of the logarithm of FEIBA (FVIII) concentration plotted against thrombin generation time at peak thrombin results in a standard curve. With this curve FEIBA (FVIII) equivalent activity is calculated for a defined peptide concentration. […] Thus, where a concentration of 100 μM is given, the actual concentration in the final assay volume in 40 μM.
# Compounds were screened using the “Defined intrinsic thrombin generation assay” in which thrombin generation was quantified in vitro in FVIII-inhibited human plasma in the presence of Factor XIa and phospholipid vesicles. Further compounds were screened in the above assay, and in the “Defined dual-pathway thrombin generation assay” using tissue factor and phospholipids instead of Factor XIa and phospholipids, as described in the specific description.
# Various concentrations of each peptide were tested in the defined intrinsic thrombin generation assay using human FVIII inhibited plasma.
Molecule,Peak IIa FVIII EU (FVIII deficient plasma; peptide 50 μM),Peak Time FVIII EU (FVIII deficient plasma; peptide 50 μM),Peak IIa FVIII EU (FVIII deficient plasma; peptide 100 μM),Peak Time FVIII EU (FVIII deficient plasma; peptide 100 μM),Peak IIa FEIBA EU (FVIII inhibited plasma; peptide 50 μM),Peak IIa FVIIa EU (FVIII inhibited plasma; peptide 50 μM),Peak Time FEIBA EU (FVIII inhibited plasma; peptide 50 μM),Peak Time FVIIa EU (FVIII inhibited plasma; peptide 50 μM),Peak IIa FEIBA EU (FVIII inhibited plasma; peptide 100 μM),Peak IIa FVIIa EU (FVIII inhibited plasma; peptide 100 μM),Peak Time FEIBA EU (FVIII inhibited plasma; peptide 100 μM),Peak Time FVIIa EU (FVIII inhibited plasma; peptide 100 μM),Thrombin peak time given as FEIBA equivalent activity ([2]; peptide 12.5 μM) [mU/ml],Thrombin peak time given as FEIBA equivalent activity ([2]; peptide 25 μM) [mU/ml],Thrombin peak time given as FEIBA equivalent activity ([2]; peptide 50 μM) [mU/ml],Thrombin peak time given as FEIBA equivalent activity ([2]; peptide 100 μM) [mU/ml],Activity in the Defined Intrinsic Thrombin Generation Assay [2],Effect on both peak time and peak IIa of thrombin generation (FVIII deficient plasma),Activity in the Defined Dual-Pathway Thrombin Generation Assay (FVIII inhibited plasma),other results
Ac-WSLYFEIVWE [Peptide A14],BLS (BLS = below lowest standard.),BLS (BLS = below lowest standard.),BLS (BLS = below lowest standard.),BLS (BLS = below lowest standard.),BLS (BLS = below lowest standard.),BLS (BLS = below lowest standard.),BLS (BLS = below lowest standard.),BLS (BLS = below lowest standard.),BLS (BLS = below lowest standard.),BLS (BLS = below lowest standard.),BLS (BLS = below lowest standard.),BLS (BLS = below lowest standard.),,,,,,,,
"CC[C@@H](C)[C@H]1NC(=O)[C@H](NC(C)=O)CSSC[C@H](C(=O)N[C@H](Cc2ccc(O)cc2)C(=O)N[C@H](CCC(=O)O)C(N)=O)NC(=O)[C@@H](CC(=O)O)NC(=O)[C@@H](Cc2ccc(O)cc2)NC(=O)[C@@H](Cc2c[nH]c3ccccc23)NC(=O)[C@@H](Cc2ccccc2)NC(=O)[C@@H](CCSC)NC1=O [Peptide B01, Ac-(cimfwydc)-ye-NH2] (Ac-[dC][dI][dM][dF][dW][dY][dD][dC][dY][dE]-NH2; disulfide 1-8)",,,,,,,,,,,,,35,62,89,103,possess activity,,,FEIBA EU (from clotting time) ([1]; compound 25 μM): 31 mU/ml; FEIBA EU (from clotting time) ([1]; compound 50 μM): 47 mU/ml; FEIBA EU (from clotting time) ([1]; compound 100 μM): 94 mU/ml; Activity in the Defined Fibrin Deposition Assay ([1]; summary): possess activity
Ac-WDLYFEIVW-ttds-K [Peptide A20],,,,,,,,,,,,,501,597,873,1101,possess activity,,,Thrombin peak time given as FEIBA equivalent activity ([2]; peptide 6.25 μM): 391 mU/ml
"CC[C@@H](C)[C@@H](NC(=O)[C@@H](CSSC[C@@H](NC(C)=O)C(=O)N[C@@H](C(=O)N[C@H](CCSC)C(=O)N[C@H](Cc1ccccc1)C(=O)N[C@H](Cc1c[nH]c2ccccc12)C(=O)N[C@H](Cc1ccc(O)cc1)C(=O)N[C@H](CC(=O)O)C(=O)N[C@H](CCC(=O)O)C(=O)N[C@H](Cc1ccc(O)cc1)C(=O)N[C@H](CCC(=O)O)C(N)=O)[C@H](C)CC)NC(C)=O)C(=O)N[C@H](CCSC)C(=O)N[C@H](Cc1ccccc1)C(=O)N[C@H](Cc1c[nH]c2ccccc12)C(=O)N[C@H](Cc1ccc(O)cc1)C(=O)N[C@H](CC(=O)O)C(=O)N[C@H](CCC(=O)O)C(=O)N[C@H](Cc1ccc(O)cc1)C(=O)N[C@H](CCC(=O)O)C(N)=O [Peptide B04, Disulphide-Dimer(Ac-cimfwydeye-NH2)2] (I: Ac-[dC][dI][dM][dF][dW][dY][dD][dE][dY][dE]-NH2 / II: Ac-[dC][dI][dM][dF][dW][dY][dD][dE][dY][dE]-NH2; disulfide I:1-II:1)",,,5.0 mU/ml,1.6 mU/ml,,,,,13.3 mU/ml,0.7 nM,BLS (BLS = below lowest standard.),BLS (BLS = below lowest standard.),,,,,,positively affected,possess activity,Peak IIa FVIII EU (FVIII deficient plasma; peptide 16 μM): 4.4 mU/ml; Peak Time FVIII EU (FVIII deficient plasma; peptide 16 μM): 4.1 mU/ml; Peak IIa FVIII EU (FVIII deficient plasma; peptide 40 μM): 4.8 mU/ml; Peak Time FVIII EU (FVIII deficient plasma; peptide 40 μM): 7.3 mU/ml; Peak IIa FEIBA EU (FVIII inhibited plasma; peptide 16 μM): BLS (BLS = below lowest standard.); Peak IIa FVIIa EU (FVIII inhibited plasma; peptide 16 μM): 0.1 nM; Peak Time FEIBA EU (FVIII inhibited plasma; peptide 16 μM): BLS (BLS = below lowest standard.); Peak Time FVIIa EU (FVIII inhibited plasma; peptide 16 μM): BLS (BLS = below lowest standard.); Peak IIa FEIBA EU (FVIII inhibited plasma; peptide 40 μM): 12.8 mU/ml; Peak IIa FVIIa EU (FVIII inhibited plasma; peptide 40 μM): 0.6 nM; Peak Time FEIBA EU (FVIII inhibited plasma; peptide 40 μM): BLS (BLS = below lowest standard.); Peak Time FVIIa EU (FVIII inhibited plasma; peptide 40 μM): BLS (BLS = below lowest standard.)
Ac-WDLYFEISW-ttds-E [Peptide A15],4.3 mU/ml,14.4 mU/ml,5.0 mU/ml,12.7 mU/ml,BLS (BLS = below lowest standard.),BLS (BLS = below lowest standard.),BLS (BLS = below lowest standard.),BLS (BLS = below lowest standard.),13.6 mU/ml,0.7 nM,BLS (BLS = below lowest standard.),BLS (BLS = below lowest standard.),,,,,,positively affected,possess activity,
PEG5000-ERMEFDVWDLYFEIVW-NH2 [Peptide A18],BLS (BLS = below lowest standard.),BLS (BLS = below lowest standard.),BLS (BLS = below lowest standard.),17.1 mU/ml,BLS (BLS = below lowest standard.),BLS (BLS = below lowest standard.),BLS (BLS = below lowest standard.),BLS (BLS = below lowest standard.),BLS (BLS = below lowest standard.),BLS (BLS = below lowest standard.),BLS (BLS = below lowest standard.),BLS (BLS = below lowest standard.),,,,,,,possess activity,
